{
  "source": "patent US20230382919A1",
  "about": "“OXA- IBOGAINE INSPIRED ANALOGUES FOR TREATMENT OF NEUROLOGICAL AND PSYCHIATRIC DISORDERS” (The Trustees of Columbia University in the City of New York, priority 2021, published 2023)",
  "test_system": "C57BL/6J mice",
  "assay": "Tail-flick test",
  "format": "in vivo",
  "settings": "Mus musculus, sc, 10-30 mg/kg dose range",
  "description": "C57BL/6J (8-12 weeks, 22-31 g) were purchased from the Jackson Laboratory (Bar Harbor, ME) and housed 5 mice per cage with food and water available ad libitum. Mice were maintained on a 12-hr light/dark cycle (lights on 7:00-19:00) and all testing was done in the light cycle. Temperature was kept constant at 22±2° C., and relative humidity was maintained at 50±5%. Mice were moved to the testing room 30 minutes before the experiment to allow for acclimation. The body weight of each mouse and base tail-flick value were recorded. Mice were administered a 1 mg/kg s.c. dose of compound solution (volume of injection 220-310 μL based on body weight). After injection mice were returned to the home cage and allowed to rest for 30 minutes. Thirty minutes post injection the tail-flick measurement was taken using thermal stimulation via IR on a Ugo Basile unit set to 52 PSU (ten seconds was used as a maximum latency to prevent tissue damage). Mice were then administered 3 mg/kg s.c. dose, allowed to rest for 30 minutes, followed by another tail-flick measurement. […] Tail-flick latencies for the different doses were expressed as percentage of maximum potential effect (% MPE) by subtracting the experimental value by the base tail flick value then dividing by the difference between the maximum possible latency (10 seconds) and the base tail-flick value and finally multiplying by 100. […]",
  "data": [
    {"smiles": "c1ccc2c3c([nH]c2c1)C1CCCN(CC3)C1", "note": "(stereo not shown) [Compound 61, 1,4,5,6,7,8-hexahydro-2H-3,7-methanoazonino[5,4-b]indole]", "values": [
      {"measurement": "ED50", "result": 16.5, "unit": "mg/kg"}
    ]}
  ]
}
